Like-named read-outs stand apart in the source and are kept apart here.
How the values were obtained:
[1] = molecular target: T1, Fam20A (Homo sapiens, UniProt Q96MK3); assay: thermal stability shift assay (SYPRO Orange), dTm vs concentration fit; format: binding; conditions: 20 mM HEPES pH 7.5, 100 mM NaCl
T1 construct: residues 69-529; secreted from Hi5 insect cells; N-terminal 6xHis-SUMO tag removed by TEV protease; dimer in crystal, concentration-dependent dimer/oligomer in solution
T1 sequence (Q96MK3 69-529): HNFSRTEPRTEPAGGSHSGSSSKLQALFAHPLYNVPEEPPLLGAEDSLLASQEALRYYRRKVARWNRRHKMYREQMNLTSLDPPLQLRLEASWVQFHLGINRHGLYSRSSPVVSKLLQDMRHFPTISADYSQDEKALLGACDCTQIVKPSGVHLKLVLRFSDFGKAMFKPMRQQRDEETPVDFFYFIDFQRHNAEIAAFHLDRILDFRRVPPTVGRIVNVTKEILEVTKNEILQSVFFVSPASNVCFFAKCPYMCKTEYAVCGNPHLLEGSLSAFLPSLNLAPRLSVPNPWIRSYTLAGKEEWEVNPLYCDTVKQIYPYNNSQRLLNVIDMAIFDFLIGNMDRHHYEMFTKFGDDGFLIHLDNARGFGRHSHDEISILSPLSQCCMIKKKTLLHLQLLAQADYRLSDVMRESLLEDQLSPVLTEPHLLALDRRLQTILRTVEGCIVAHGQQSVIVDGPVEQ

[2] = molecular target: T2, Fam20A (Homo sapiens, UniProt Q96MK3, D430A); assay: thermal stability shift assay (SYPRO Orange); format: binding; conditions: 100 μM ATP; 20 mM HEPES pH 7.5, 100 mM NaCl
T2 construct: residues 69-529; secreted from Hi5 insect cells; N-terminal 6xHis-SUMO tag removed by TEV protease; dimer in crystal, concentration-dependent dimer/oligomer in solution
T2 sequence (Q96MK3 69-529 D430A): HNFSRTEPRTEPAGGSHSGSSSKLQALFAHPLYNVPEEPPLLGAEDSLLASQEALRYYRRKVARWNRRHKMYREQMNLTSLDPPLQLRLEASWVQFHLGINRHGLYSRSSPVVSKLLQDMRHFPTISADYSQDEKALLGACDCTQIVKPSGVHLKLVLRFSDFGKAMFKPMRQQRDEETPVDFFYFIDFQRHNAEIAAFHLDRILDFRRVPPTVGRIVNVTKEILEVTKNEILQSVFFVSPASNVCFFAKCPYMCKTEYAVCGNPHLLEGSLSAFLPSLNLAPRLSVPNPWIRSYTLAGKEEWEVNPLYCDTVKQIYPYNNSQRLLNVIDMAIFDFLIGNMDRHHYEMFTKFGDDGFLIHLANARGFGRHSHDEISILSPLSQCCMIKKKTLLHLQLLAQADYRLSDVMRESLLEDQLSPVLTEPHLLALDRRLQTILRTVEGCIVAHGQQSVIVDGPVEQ

[3] = molecular target: T3, Fam20A (Homo sapiens, UniProt Q96MK3, K223A); assay: thermal stability shift assay (SYPRO Orange); format: binding; conditions: 100 μM ATP; 20 mM HEPES pH 7.5, 100 mM NaCl
T3 construct: residues 69-529; secreted from Hi5 insect cells; N-terminal 6xHis-SUMO tag removed by TEV protease; dimer in crystal, concentration-dependent dimer/oligomer in solution
T3 sequence (Q96MK3 69-529 K223A): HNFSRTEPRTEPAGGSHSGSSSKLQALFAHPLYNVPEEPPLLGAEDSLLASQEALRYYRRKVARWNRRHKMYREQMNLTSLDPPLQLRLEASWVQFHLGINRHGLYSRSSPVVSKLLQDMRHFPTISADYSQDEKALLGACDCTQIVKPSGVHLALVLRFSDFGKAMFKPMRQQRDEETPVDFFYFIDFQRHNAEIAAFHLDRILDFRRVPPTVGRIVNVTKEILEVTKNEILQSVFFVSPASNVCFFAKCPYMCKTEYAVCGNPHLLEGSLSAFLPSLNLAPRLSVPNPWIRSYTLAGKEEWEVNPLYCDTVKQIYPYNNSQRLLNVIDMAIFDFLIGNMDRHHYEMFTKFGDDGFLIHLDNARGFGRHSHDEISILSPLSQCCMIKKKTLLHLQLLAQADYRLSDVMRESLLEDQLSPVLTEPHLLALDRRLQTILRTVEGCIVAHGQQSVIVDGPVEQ

[4] = molecular target: T1, Fam20A; assay: thermal stability shift assay (SYPRO Orange); format: binding; conditions: 10 μM nucleotide; no metal ions; 20 mM HEPES pH 7.5, 100 mM NaCl
[5] = molecular target: the molecule itself; assay: SEC; 1 mg or 100 µg purified Fam20A (both in 500 µl) on Superdex 200 increase 10/300 GL, 20 mM HEPES, pH 7.5, 100 mM NaCl

Nc1ncnc2c1ncn2[C@@H]1O[C@H](COP(=O)(O)OP(=O)(O)O)[C@@H](O)[C@H]1O [ADP]
Kd ([1]; no cations): Fam20A prefers binding ATP over ADP (Figure 2D)

Nc1ncnc2c1ncn2[C@@H]1O[C@H](COP(=O)(O)OP(=O)(O)OP(=O)(O)O)[C@@H](O)[C@H]1O [ATP]
Tm [2]: with Ala has little effect on the ability of Fam20A to bind ATP | Kd ([1]; no divalent cations, inverted orientation in crystal, read-out: Kd^app): 3 µM | Tm [3]: with Ala has little effect on the ability of Fam20A to bind ATP

Nc1ccn([C@@H]2O[C@H](COP(=O)(O)OP(=O)(O)OP(=O)(O)O)[C@@H](O)[C@H]2O)c(=O)n1 [CTP]
ΔTm [4]: Fam20A also binds other nucleoside triphosphates including GTP, CTP, and UTP

Nc1nc2c(ncn2[C@@H]2O[C@H](COP(=O)(O)OP(=O)(O)OP(=O)(O)O)[C@@H](O)[C@H]2O)c(=O)[nH]1 [GTP]
ΔTm [4]: Fam20A also binds other nucleoside triphosphates including GTP, CTP, and UTP

O=c1ccn([C@@H]2O[C@H](COP(=O)(O)OP(=O)(O)OP(=O)(O)O)[C@@H](O)[C@H]2O)c(=O)[nH]1 [UTP]
ΔTm [4]: Fam20A also binds other nucleoside triphosphates including GTP, CTP, and UTP

B1: Human Fam20A residues 69–529 (domain or fragment, UniProt Q96MK3 69-529, looked up)
chain: HNFSRTEPRTEPAGGSHSGSSSKLQALFAHPLYNVPEEPPLLGAEDSLLASQEALRYYRRKVARWNRRHKMYREQMNLTSLDPPLQLRLEASWVQFHLGINRHGLYSRSSPVVSKLLQDMRHFPTISADYSQDEKALLGACDCTQIVKPSGVHLKLVLRFSDFGKAMFKPMRQQRDEETPVDFFYFIDFQRHNAEIAAFHLDRILDFRRVPPTVGRIVNVTKEILEVTKNEILQSVFFVSPASNVCFFAKCPYMCKTEYAVCGNPHLLEGSLSAFLPSLNLAPRLSVPNPWIRSYTLAGKEEWEVNPLYCDTVKQIYPYNNSQRLLNVIDMAIFDFLIGNMDRHHYEMFTKFGDDGFLIHLDNARGFGRHSHDEISILSPLSQCCMIKKKTLLHLQLLAQADYRLSDVMRESLLEDQLSPVLTEPHLLALDRRLQTILRTVEGCIVAHGQQSVIVDGPVEQ
notes: Fam20A, human, residues 69-529, secreted from a modified pI-secSUMOstar vector; the 6xHis-SUMO tag was removed by TEV protease; The only purified Fam20A construct that the methods describe; also called untagged Fam20A; purified Fam20A; source: Hi5 insect cells (baculovirus), conditioned medium, purified (Ni-NTA, Resource Q, Superdex 200); not shown: 6xHis, N-terminal, cleaved; SUMO, N-terminal, …
binding result [5]: binds

Reference: paper PMC5413348, “Structure of Fam20A reveals a pseudokinase featuring a unique disulfide pattern and inverted ATP-binding” (eLife, 2017)
